Laboratory results: patent US20230115176A1 (Ra Pharmaceuticals, Inc., priority 2019, published 2023)
pIC50, pKd: −log10 of the molar value.

Experiments:
purified human C5 = purified human C5 (Homo sapiens, UniProt P01031); assay: Red blood cell hemolysis assay, optical, absorbance 412 nm (Example 3, Table 6); type: cell-based; conditions: antibody-sensitized sheep erythrocytes, 1.5% human C5 depleted sera, 0.5 nM human C5; average where replicates
Method: Experiments were carried out using a red blood cell (RBC) hemolysis assay to assess compound inhibition of RBC lysis. […] The assay was carried out using 1.5% human C5 depleted sera and 0.5 nM purified human C5.
GVB++ buffer (Complement Technology, Tyler, Tex.) was heated at 37° C. for a minimum of 20 minutes. The human C5 depleted sera and purified human C5 were rapidly thawed at 37° C. and then stored on ice or wet ice, respectively. The compound stock (10 mM, DMSO) was serially diluted in 100% DMSO to obtain ten 6-fold dilutions before addition of GVB++. Sera dilution was prepared by adding 5 mL of GVB++ to a 15 mL conical tube, removing 600 μL of the GVB++ and adding 600 μL of the 100% sera. The tube was mixed by inverting three times. A volume of 25 μL of the diluted sera was added to each well so that the final concentration of sera in the well was 1.5%. C5 dilution was prepared by adding 5 mL of GVB++ to a 15 mL conical tube, removing 4 μL of the GVB++ and adding 4 μL of the C5 stock. The tube was mixed by inverting three times. A volume of 25 μL was added to each well so that the final amount of C5 was 0.5 nM in each well. The antibody-sensitized sheep erythrocytes (EAs) were centrifuged at 1,000× gravity at 22° C. for 3 minutes. The supernatant was pipetted off without disrupting the pellet. The pellet was then resuspended in GVB++ with the same volume removed. Resuspended EAs were mixed by gently inverting the tube.
Five controls were run on each plate: (1) EAs only=100 μL EAs+50 μL GVB++ with 4% DMSO+50 μL GVB++; (2) EA+Sera=100 μL EAs+50 μL GVB++ with 4% DMSO+25 μL Sera dilution+25 μL GVB++; (3) EA+C5=100 μL EAs+50 μL GVB++ with 4% DMSO+25 μL C5 dilution+25 μL GVB++; (4) EA+Sera+C5=100 μL EAs+50 μL GVB++ with 4% DMSO+25 μL Sera dilution+25 μL C5; (5) GVB++ Only=200 μL GVB++. Other wells included: GVB++ with 4% DMSO=20 μL DMSO+480 μL GVB++. All samples were analyzed in duplicate. The compound dose response curve was generated using samples prepared with 100 μL EA+50 μL compound dilution+25 μL C5 dilution+25 μL sera dilution.
Test plates were prepared by adding 100 μL of EAs, 50 μL of compound dilution, 25 μL of sera dilution, and 25 μL of C5 dilution to individual wells of a 96-well tissue culture-treated clear microtitre plate (USA Scientific, Ocala, Fla.) and resuspending by pipetting up and down three times. The samples were incubated at 37° C. for one hour. At the completion of the incubation, the plates were centrifuged at 1,000× gravity for 3 minutes. 100 μl of supernatant were transferred to a new plate and the absorbance was read at 412 nm. Data was fit with a log-logit formula producing a dose-response curve and IC50.
“IC50” refers to the half maximal inhibitory concentration, where the value is the concentration of the inhibitor needed to reduce red blood cell hemolysis by half. Where replicate analysis was conducted, average IC50 values are provided along with standard deviation (SD) values.

Human C5 = biological target: T1, Human C5 (Homo sapiens, UniProt P01031); assay: Surface plasmon resonance (SPR), compounds on immobilized human C5 (Example 2, Table 5); type: binding; conditions: lowest value where a range of compound concentrations were analyzed
T1 construct: purchased Complement Technology
T1 sequence (P01031 19-1676): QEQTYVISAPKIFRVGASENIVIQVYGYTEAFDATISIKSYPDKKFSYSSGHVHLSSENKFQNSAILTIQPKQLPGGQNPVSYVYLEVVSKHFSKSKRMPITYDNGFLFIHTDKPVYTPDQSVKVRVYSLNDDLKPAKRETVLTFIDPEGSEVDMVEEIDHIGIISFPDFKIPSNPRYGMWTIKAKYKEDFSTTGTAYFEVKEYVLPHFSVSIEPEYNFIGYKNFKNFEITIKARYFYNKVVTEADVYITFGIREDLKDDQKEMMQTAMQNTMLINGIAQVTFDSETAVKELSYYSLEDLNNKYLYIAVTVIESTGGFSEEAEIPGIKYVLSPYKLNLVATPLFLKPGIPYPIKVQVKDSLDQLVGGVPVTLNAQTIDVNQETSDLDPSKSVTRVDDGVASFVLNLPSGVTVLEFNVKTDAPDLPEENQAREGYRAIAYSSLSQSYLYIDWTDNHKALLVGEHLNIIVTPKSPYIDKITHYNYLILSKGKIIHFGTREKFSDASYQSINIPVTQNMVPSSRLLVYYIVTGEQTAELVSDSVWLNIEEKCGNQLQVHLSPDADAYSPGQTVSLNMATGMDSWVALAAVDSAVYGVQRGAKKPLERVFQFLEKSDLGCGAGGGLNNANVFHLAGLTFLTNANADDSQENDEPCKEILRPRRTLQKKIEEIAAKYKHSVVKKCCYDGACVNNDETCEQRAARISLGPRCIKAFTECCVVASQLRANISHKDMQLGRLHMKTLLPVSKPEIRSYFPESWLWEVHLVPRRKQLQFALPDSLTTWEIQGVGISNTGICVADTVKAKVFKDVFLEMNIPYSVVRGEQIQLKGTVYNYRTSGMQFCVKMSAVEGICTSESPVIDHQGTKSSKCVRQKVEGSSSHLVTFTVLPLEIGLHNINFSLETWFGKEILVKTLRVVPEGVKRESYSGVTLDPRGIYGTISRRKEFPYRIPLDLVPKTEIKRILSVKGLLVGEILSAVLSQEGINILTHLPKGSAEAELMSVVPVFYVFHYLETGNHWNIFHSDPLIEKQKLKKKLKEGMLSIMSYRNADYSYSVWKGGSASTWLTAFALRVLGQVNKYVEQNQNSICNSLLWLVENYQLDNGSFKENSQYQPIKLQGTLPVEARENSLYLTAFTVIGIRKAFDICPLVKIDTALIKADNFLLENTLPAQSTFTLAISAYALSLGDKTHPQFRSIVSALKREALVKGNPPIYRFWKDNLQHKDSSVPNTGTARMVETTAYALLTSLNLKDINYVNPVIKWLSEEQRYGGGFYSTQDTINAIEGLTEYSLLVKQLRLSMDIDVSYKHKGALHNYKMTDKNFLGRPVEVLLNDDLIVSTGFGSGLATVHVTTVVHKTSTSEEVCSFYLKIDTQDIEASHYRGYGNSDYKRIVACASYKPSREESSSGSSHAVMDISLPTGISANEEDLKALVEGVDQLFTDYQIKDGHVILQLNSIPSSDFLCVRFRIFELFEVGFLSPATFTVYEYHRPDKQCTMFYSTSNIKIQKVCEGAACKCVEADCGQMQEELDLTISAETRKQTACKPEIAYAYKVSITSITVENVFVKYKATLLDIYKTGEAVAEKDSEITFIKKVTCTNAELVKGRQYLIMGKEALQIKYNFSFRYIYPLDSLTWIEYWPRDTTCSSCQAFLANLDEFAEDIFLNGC
Method: Surface plasmon resonance (SPR) technology was used to evaluate affinity, specificity, and kinetics of interactions between compounds and complement protein C5 in real time without the need for labeling.
SensiQ FE SPR system (SensiQ Technologies, Oklahoma City, Okla.) was used to provide sensitive and accurate detection of binding of small molecules to the very large C5 protein (MW=195,000 Da). The chip was prepared by preconditioning the sensor according to the protocol of the SensiQ FE using 10 mM HCl, 50 mM NAOH and 0.1% SDS. The sensor chip was activated by using a mixture of fresh EDAC (1-ethyl-3-(-3-dimethylaminopropyl) carbodiimide) (Sigma Co., St. Louis, Mo.) and NHS (N-hydroxy succinimide) (Sigma Co., St. Louis, Mo.). Human C5 was surface immobilized to a Pioneer Biosensor chip via random amine coupling (>12,000 RU) which makes use of the N-terminus and ε-amino groups of lysine residues of the protein ligand. Immobilization was done by injecting 30-40 μg/ml C5 in 10 mM NaAc pH 4.5 onto designated channels at a rate of 10 μL/minute for 12 minutes, targeting RL>12000 RU for small molecules.
Compounds were diluted in DMSO in a format of 100-fold final concentration and 3-fold serial dilution (5 or 6 dilutions). The 100-fold compounds were transferred to one-fold DMSO-free assay buffer in the 96-well test plate. The compound solution was injected at a rate of 60 μL/minute for 30-60 seconds, followed by 60-90 seconds dissociation time, buffer flushing and/or priming. Blank solution (1% DMSO assay buffer) was run for every 6 injections of compounds. Double reference by subtracting both blank channel and reference channel was applied for data processing. Titration of C5 binding compounds to the C5-immobilized biosensor chip surface led to interactions between C5 and potential binders, and the resulting changes of surface refractive index were sensitively measured by the system.
SPR data were analyzed with the managing software provided by SensiQ and equilibrium dissociation constant (KD) values were determined for each compound. Where a range of compound concentrations were analyzed, the lowest value obtained is presented.

Chain of purified human C5 (P01031 19-1676): as above

| Structure (SMILES) | pIC50 (purified human C5) | pKd (Human C5) |
| --- | --- | --- |
| COc1ccc(NC(=O)NCC(O)c2ccccn2)cc1OCCCC(C)C (stereo not drawn) [SM0078] | 4.90 | 5.44 |
| COc1ccc(NC(=O)NCc2ccc3ccccc3n2)cc1OCCCC(C)C [SM0086] | 4.78 |  |
| COc1ccc(NC(=O)N(C)Cc2ccccc2)cc1OCCCC(C)C [SM0021] | 6.27 | 6.43 |
| COc1ccc(NC(=O)N[C@@H](CO)c2ccccc2)cc1OCCC(C)C [SM0072] | 5.06 | 5.09 |
| COc1ccc(NC(=O)NC(CO)c2cccc(F)c2)cc1OCCCC(C)C (stereo not drawn) [SM0018] | 6.38 | 6.94 |
| COc1ccc(NC(=O)N[C@@H](CO)c2ccccc2)cc1OCCOC(C)C [SM0083] | 4.81 | 5.19 |
| COc1ccc(NC(=O)N[C@@H](CO)c2ccccc2)cc1OCC(F)(F)F [SM0085] | 4.79 |  |
| COc1ccc(NC(=O)NCc2cccc(C#N)c2)cc1OCCCC(C)C [SM0076] | 4.93 | 5.03 |
| COc1cccc(C(CO)NC(=O)Nc2ccc(OC)c(OCCCC(C)C)c2)c1 (stereo not drawn) [SM0028] | 6.05 |  |
| COCCCOc1cc(NC(=O)N[C@@H](CO)c2ccccc2)ccc1OC [SM0084] | 4.79 | 6.51 |
| COc1ccc(NC(=O)NCc2ccncc2)cc1OCCCC(C)C [SM0031] | 6.01 | 5.57 |
| COc1ccc(NC(=O)NC(CO)c2ccc(F)cc2)cc1OCCCC(C)C (stereo not drawn) [SM0020] | 6.32 |  |
| CC(C)CCCOc1cccc(NC(=O)N[C@@H](CO)c2ccccc2)c1 [SM0070, 1-[(1R)-2-hydroxy-1-phenyl-ethyl]-3-(3-isohexyloxyphenyl)urea] | 5.07 | 5.32 |
| COc1ccc(NC(=O)NCc2ccc3[nH]ccc3c2)cc1OCCCC(C)C [SM0022] | 6.24 | 7.08 |
| COc1ccc(NC(=O)NC(CCO)c2ccccc2)cc1OCCCC(C)C (stereo not drawn) [SM0064] | 5.19 | 5.18 |
| COc1ccc(NC(=O)NC(c2ccccc2F)C(C)O)cc1OCCCC(C)C (stereo not drawn) [SM0082] | 4.84 |  |
| COc1ccc(NC(=O)NCc2ccccc2CO)cc1OCCCC(C)C [SM0050] | 5.54 | 6.99 |
| COc1ccc(NC(=O)NCc2ccccc2C#N)cc1OCCCC(C)C [SM0067] | 5.13 | 6.76 |
| COc1ccc(NC(=O)NC(CO)c2ccco2)cc1OCCCC(C)C (stereo not drawn) [SM0032] | 5.98 | 7.60 |
| C=CCCOc1cc(NC(=O)N[C@@H](CO)c2ccccc2)ccc1OC [SM0034] | 5.96 | 5.85 |
| CCCCCc1cccc(NC(=O)N[C@@H](CO)c2ccccc2)c1 [SM0087] | 4.78 | 5.00 |
| COc1ccc(NC(=O)N[C@@H](CO)c2ccccc2)cc1C#CCCC(C)C [SM0014] | 6.48 | 7.20 |
| COc1ncc(NC(=O)N[C@@H](CO)c2ccccc2)cc1OCCCC(C)C [SM0042] | 5.67 | 5.19 |
| COc1ccc(NC(=O)NC(CO)c2ccccc2OC)cc1OCCCC(C)C (stereo not drawn) [SM0003] | 7.57 | 7.85 |
| COc1ccc(NC(=O)NCc2ccc(CN(C)C)cc2)cc1OCCCC(C)C [SM0043] | 5.67 | 5.71 |
| COc1ccc(NC(=O)NCc2ccc(O)c(O)c2)cc1OCCCC(C)C [SM0015] | 6.47 | 6.71 |
| COc1ccc(NC(=O)NCc2cccc(S(C)(=O)=O)c2)cc1OCCCC(C)C [SM0079] | 4.90 |  |

| Structure (SMILES) | pIC50 (purified human C5) | pKd (Human C5) |
| --- | --- | --- |
| COc1ccc(NC(=O)NCc2cccc(CN(C)C)c2)cc1OCCCC(C)C [SM0063] | 5.21 | 5.20 |
| COc1ccc(NC(=O)N[C@@H](COC(N)=O)c2ccccc2)cc1OCCCC(C)C [SM0068, (R)-2-(3-(4-methoxy-3-((4-methylpentyl)oxyureido)-2-phenylethyl carbamate] | 5.13 | 5.59 |
| COc1ccc(NC(=O)NCc2cccnc2)cc1OCCCC(C)C [SM0049] | 5.55 | 5.39 |
| COc1ccc(NC(=O)Nc2ccccc2O)cc1OCCCC(C)C [SM0069] | 5.11 | 6.85 |
| COc1ccc(CNC(=O)Nc2ccc(OC)c(OCCCC(C)C)c2)cc1 [SM0041] | 5.75 |  |
| COc1ccc(NC(=O)N(C)CC(O)c2ccc(O)cc2)cc1OCCCC(C)C (stereo not drawn) [SM0071, 1-[2-hydroxy-2-(4-hydroxyphenyl)ethyl]-3-(3-isohexyloxy-4-methoxy-phenyl)-1-methyl-urea] | 5.06 | 5.68 |
| COc1ccc(NC(=O)N[C@@H](CO)c2ccc(F)cc2)cc1OCCCC(C)C [SM0023] | 6.22 | 7.04 |
| COc1ccc(NC(=O)N(CCO)c2ccccc2)cc1OCCCC(C)C [SM0057] | 5.39 | 5.28 |
| COc1ccc([C@H](CO)NC(=O)Nc2ccc(OC)c(OCCCC(C)C)c2)cc1 [SM0008] | 6.76 | 7.35 |
| COc1ccc(NC(=O)N[C@@H](CO)c2ccccc2)cc1OCCC1CCCC1 [SM0019] | 6.35 | 7.41 |
| COc1ccc(NC(=O)N2CCC[C@H]2c2ccccc2)cc1OCCCC(C)C [SM0027] | 6.16 | 6.77 |
| COc1ccc(NC(=O)N[C@@H](CO)c2ccccc2)cc1OCC(C)CC(C)C (stereo partly drawn) [SM0038] | 5.83 | 6.10 |
| COc1ccc(NC(=O)NCc2ccccc2OC)cc1CCCCC(C)C [SM0007] | 6.78 | 7.05 |
| COc1ccc(NC(=O)N[C@@H](C)c2ccccc2)cc1OCCCC(C)C [SM0009] | 6.70 | 6.19 |
| COc1ccc(NC(=O)NCc2cccs2)cc1OCCCC(C)C [SM0052] | 5.51 | 6.25 |
| COc1ccc(NC(=O)NC(CO)c2ccccc2F)cc1CCCCC(C)C (stereo not drawn) [SM0029] | 6.05 | 6.62 |
| COc1ccc(NC(=O)NCc2ccccn2)cc1OCCCC(C)C [SM0045] | 5.65 | 5.55 |
| COc1ccc(NC(=O)NCc2cccc3ncccc23)cc1OCCCC(C)C [SM0044] | 5.66 | 7.13 |
| COc1ccc(NC(=O)NCc2ccccc2)cc1OCCCC(C)C [SM0026] | 6.16 | 7.01 |
| COc1ccc(NC(=O)NCc2ccnc3[nH]ccc23)cc1OCCCC(C)C [SM0013] | 6.49 | 7.77 |
| COc1ccc(NC(=O)NCC(O)c2ccc(O)cc2)cc1OCCCC(C)C (stereo not drawn) [SM0074] | 5.03 | 5.44 |
| COc1ccc(NC(=O)NC(C)c2cccnc2)cc1OCCCC(C)C (stereo not drawn) [SM0037] | 5.88 | 6.20 |
| COc1ccc(NC(=O)NCc2cnccn2)cc1OCCCC(C)C [SM0080] | 4.89 | 6.84 |
| COc1ccc(NC(=O)N[C@@H](CO)c2ccccc2)cc1OCCN1CCC(O)CC1 [SM0094] |  | 6.42 |
| COc1ccc(NC(=O)N[C@@H](CO)c2ccccc2)cc1OCCOC1CCC1 [SM0053] | 5.47 | 5.48 |
| COc1ccc(NC(=O)NCc2ccc(O)cc2)cc1OCCCC(C)C [SM0017] | 6.40 | 6.95 |
| COc1ccc(NC(=O)N[C@@H](CO)c2ccccc2)cc1OCCCCl [SM0051] | 5.51 |  |

| Structure (SMILES) | pIC50 (purified human C5) | pKd (Human C5) |
| --- | --- | --- |
| COc1cccc(CNC(=O)Nc2ccc(OC)c(OCCCC(C)C)c2)c1 [SM0047] | 5.64 | 6.08 |
| COc1ccc(NC(=O)NC(CO)c2ccccc2F)cc1OCCCC(C)C (stereo not drawn) [SM0024] | 6.21 | 6.89 |
| COc1ccc(NC(=O)NC(CO)c2ccccc2C)cc1OCCCC(C)C (stereo not drawn) [SM0036] | 5.91 | 5.37 |
| COc1ccc(NC(=O)N[C@@H](COC(C)=O)c2ccccc2)cc1OCCCC(C)C [SM0062] | 5.25 | 5.70 |
| CC(C)CCCOc1cc(NC(=O)N[C@@H](CO)c2ccccc2)ccc1F [SM0075] | 4.94 | 5.89 |
| COc1ccc(NC(=O)NCCc2ccccc2)cc1OCCCC(C)C [SM0117] |  | 5.12 |
| COc1ccc(NC(=O)NCc2cccc(O)c2)cc1OCCCC(C)C [SM0016] | 6.42 | 6.54 |
| COc1ccc(NC(=O)NCc2ccccc2O)cc1OCCCC(C)C [SM0004] | 7.37 | 7.55 |
| COc1ccc(NC(=O)N[C@@H](C)c2ccccc2)cc1OCC(C)(C)N(C)C [SM0107] |  | 5.49 |
| COc1ccc(NC(=O)NCc2ccc3nccn3c2)cc1OCCCC(C)C [SM0065] | 5.18 | 5.80 |
| COc1ccc(NC(=O)NCc2ccccc2F)cc1OCCCC(C)C [SM0058] | 5.39 | 6.30 |
| COc1cc(CNC(=O)Nc2ccc(OC)c(OCCCC(C)C)c2)ccc1O [SM0030] | 6.03 | 6.72 |
| COc1ccc(NC(=O)N[C@@H](CO)c2ccccc2)cc1OCc1ccncc1 [SM0098] |  | 5.42 |
| COc1ccc(NC(=O)NCc2ccc(S(C)(=O)=O)cc2)cc1OCCCC(C)C [SM0113] |  | 6.22 |
| COc1ccc(NC(=O)N[C@@H](CO)c2ccccc2)cc1OCCCC#N [SM0119] |  | 6.08 |
| COc1ccc(NC(=O)NCc2cncnc2)cc1OCCCC(C)C [SM0090] |  | 5.68 |
| COc1ccc(NC(=O)NC(c2ccccc2F)[C@@H](O)CO)cc1OCCCC(C)C (stereo partly drawn) [SM0106] |  | 5.57 |
| COc1ccc(NC(=O)N[C@@H](CO)c2ccccc2)cc1Br [SM0060] | 5.35 |  |
| COc1ccc(NC(=O)N[C@@H](CO)c2ccccc2)cc1OCc1ccccc1 [SM0088] | 4.73 |  |
| COc1ccc(NC(=O)NC(CO)c2cnn(C)c2)cc1OCCCC(C)C (stereo not drawn) [SM0055] | 5.46 |  |
| COc1ccc(NC(=O)N[C@H](CCO)c2ccccc2)cc1OCCCC(C)C [SM0118] |  | 5.09 |
| COc1ccc(NC(=O)N[C@H]2c3ccccc3C[C@@H]2O)cc1OCCCC(C)C [SM0103] |  | 5.74 |
| COc1ccc(NC(=O)NCc2ccccc2CN(C)C)cc1OCCCC(C)C [SM0100] |  | 6.92 |
| CCCOc1cc(NC(=O)O[C@@H](C)c2ccccc2)ccc1OC [SM0110] |  | 5.41 |
| COc1ccc(NC(=O)N[C@@H](C)c2ccc(Br)cc2)cc1OCCCC(C)C [SM0108] |  | 5.49 |
| CCCCn1ncc2ccc(NC(=O)N[C@@H](CO)c3ccccc3)cc21 [SM0096, 1-(1-butylindazol-6-yl)-3-[(1R)-2-hydroxy-1-phenyl-ethyl]urea] |  | 5.68 |
